Test system: HUVEC cell
Assay: Cell Proliferation Inhibition VEGF-R2 Assay (SRB method)
Format: cell-based, homo sapient
Settings: Homo sapiens; HUVEC cells, 72 hours exposure, Sulforhodamine B; read-out: IC50 (VEGFR/HUVEC)
Excerpt: The following in vitro assay may be used to determine the level of activity and effect of different compounds of the present invention on the proliferation inhibition (cell toxic) of endothelium growth factor receptor (VEGFR) high expressing homo […] cancer cell-HUVEC cell. The cellular assay described here measure the compounds of their anti-angiogenesis and proliferation inhibition activity and effect through […] on the cancer cells in vitro. The effect and activity is represented by the IC50 value that kills the cancer cell. […] The homo […] highly express […] are chosen and seeded to 96-well cell culture plate at a suitable concentration (exp 5000 cells/ml medium). The cells then are cultured in carbon dioxide (CO2) incubator till when they confluence to about 85%. Then, the cell culture medium is replaced by fresh one with tested compounds added in it at serial concentrations (general 6 to 7 concentrations). Then the cells are put back to the culture and cultured for continuous 72 hours. 72 hours later, the cell exposed to compounds and control cell are assayed for their proliferation using Sulforhodamine B (SRB) method. […] Dimethyl sulfoxide (Sinophma chemical reagent company, catalog No. T20050806) • b. HUVEC cells (Purchased from Institute of biochemistry and cell biology) • c. […] Acetic Acid (Sinophma chemical reagent company, Catalog No. T20060508) • l. Trichloroacetic Acid (Sinophma chemical reagent company, Catalog No. T20060305) • m. […] Class II A/B3 Biological safety cabinet (ThermoForma Catalog No. HB0053-03) • o. […] Centrifuge (Fisher Scientific Marathon 8 k, Catalog No. 0027-02) • q. Novastar Plate reader (BMG Labtech, Catalog No. 700-0081) • r. […] Growing seeded 96-well plates at 37° C., 5% CO2, till 85% confluence. • 4. Prepare compounds stock solution, using DMSO solve candidate compounds to a concentration of 20 mM. […] Use cell culture medium (in this case, DMEM/F12+10% FBS) to dilute the compounds solution prepared above. Each DMSO serial concentration compound solution is diluted by 20 times with culture medium by adding 5 μl DMSO compound solution to 95 μl culture medium, then mix well by vortex. […] After HUVEC cell has attached to the dish bottom and confluence about 85%, change the culture medium with fresh DMEM/F12 plus 10% FBS. Each well added 180 μl medium, then add 20 μl medium solution of tested compounds prepared at step 5 to each well. For control group cell, add 20 μl culture medium containing 0.5% pure DMSO. […] Each 96-well plate, we can test 3 compounds with a control cell group. • 7. Put the culture plates back to incubator, culture for 72 hours at 37° C., 5% CO2. • 8. 72 hours later, remove cultures from incubator into sterile work area. • 9. Prepare fixative (50% Trichloroacetic Acid-TCA) by adding reagent grade water to the TCA, fix the cells by gently layering 50 μl of cold TCA solution on top of the growth medium. • 10. Incubate plates for 1 hour at 4° C. and then rinse with water several times to remove TCA, serum proteins, etc. Plates are air dried and stored until use. Bland background optical density is measured in wells incubated with growth medium without cells. • 11. Use 10% acetic acid solution to prepare 0.4% Sulforhodamine B solution. Add 50 μl sulforhodamine B solution to each well of 96-well plates. • 12. Allow cells to stain for 30 minutes. • 13. Prepared the wash solution of […] acetic acid. At the end of the staining period, the stain is removed and the cells rinsed quickly with 1% acetic acid. Repeat until unincorporated dye is removed. Keep wash times to a minimum to reduce desorption of protein-bound dye. After being rinsed, the cultures are air dried until no moisture is visible. • 14. The incorporated dye is then solubilized in a volume of Sulforhodamine B assay Solubilization solution (10 mM Tris) equal to the original volume of culture medium. Allow cultures to stand for 5 minutes at room temperature.

Row | Structure (SMILES) | IC50
1 | O=C1Nc2ccc(Cl)cc2/C1=C/c1[nH]c2c(c1-c1ccc(F)cc1)C(=O)NCC2 [Example 58, 2-(5-Chloro-2-oxo-1,2-dihydro-indol-3-ylidenemethyl)-3-(4-fluoro-phenyl)-1,5,6,7-tetrahydro-pyrrolo[3,2-c]pyridin-4-one] | 3.99 µM
2 | Cc1c(/C=C2\C(=O)Nc3c(N)cc(F)cc32)[nH]c2c1C(=O)N(CCN1CCOCC1)CC2 [Example 21, 2-(7-Amino-5-fluoro-2-oxo-1,2-dihydro-indol-3-ylidenemethyl)-3-methyl-5-(2-morpholin-4-yl-ethyl)-1,5,6,7-tetrahydro-pyrrolo[3,2-c]pyridin-4-one] | 2.1 µM
3 | O=C1Nc2ccc(F)cc2/C1=C/c1[nH]c2c(c1-c1ccc(F)cc1)C(=O)NCC2 [Example 46, 2-(5-Fluoro-2-oxo-1,2-dihydro-indol-3-ylidenemethyl)-3-(4-fluoro-phenyl)-1,5,6,7-tetrahydro-pyrrolo[3,2-c]pyridin-4-one] | 10.5 µM
4 | Cc1cccc2c1/C(=C/c1[nH]c3c(c1C)C(=O)N(CCN1CCOCC1)CC3)C(=O)N2 [Example 51, 3-Methyl-2-(4-methyl-2-oxo-1,2-dihydro-indol-3-ylidenemethyl)-5-(2-morpholin-4-yl-ethyl)-1,5,6,7-tetrahydro-pyrrolo[3,2-c]pyridin-4-one] | 0.78 µM
5 | Cc1c(/C=C2\C(=O)Nc3cccc(-c4cccc(F)c4F)c32)[nH]c2c1C(=O)N(CCN1CCOCC1)CC2 [Example 44, 2-[4-(2,3-Difluoro-phenyl)-2-oxo-1,2-dihydro-indol-3-ylidenemethyl]-3-methyl-5-(2-morpholin-4-yl-ethyl)-1,5,6,7-tetrahydro-pyrrolo[3,2-c]pyridin-4-one] | 1.32 µM
6 | Cc1c(/C=C2\C(=O)Nc3cc(N)c(F)cc32)[nH]c2c1C(=O)N(CCN1CCOCC1)CC2 [Example 20, 2-(6-Amino-5-fluoro-2-oxo-1,2-dihydro-indol-3-ylidenemethyl)-3-methyl-5-(2-morpholin-4-yl-ethyl)-1,5,6,7-tetrahydro-pyrrolo[3,2-c]pyridin-4-one] | 15.3 µM
7 | CCN(CC)CCN1CCc2[nH]c(/C=C3\C(=O)Nc4ccc(NS(C)(=O)=O)cc43)c(C)c2C1=O [Example 10, N-{3-[5-(2-Diethylamino-ethyl)-3-methyl-4-oxo-4,5,6,7-tetrahydro-1H-pyrrolo[3,2-c]pyridine-2-ylmethylene]-2-oxo-2,3-dihydro-1H-indol-5-yl}-methanesulfonamide] | 0.36 µM
8 | Cc1c(/C=C2\C(=O)Nc3ccc(Br)cc32)[nH]c2c1C(=O)N(CCN1CCOCC1)CC2 [Example 17, 2-(5-Bromo-2-oxo-1,2-dihydro-indol-3-ylidenemethyl)-3-methyl-5-(2-mopholin-4-yl-ethyl)-1,5,6,7-tetrahydro-pyrrolo[3,2-c]pyridin-4-one] | 2.26 µM
9 | CC(=O)Nc1cc2c(cc1F)/C(=C/c1[nH]c3c(c1C)C(=O)N(CCN1CCOCC1)CC3)C(=O)N2 [Example 19, N-{5-Fluoro-3-[3-methyl-5-(2-morpholin-4-yl-ethyl)-4-oxo-4,5,6,7-tetrahydro-1H-pyrrolo[3,2-c]pyridine-2-ylmethylene]-2-oxo-2,3-dihydro-1H-indol-6-yl}-acetamide] | 2.56 µM
10 | COc1ccc2c(c1)/C(=C/c1[nH]c3c(c1C)C(=O)N(CCN1CCOCC1)CC3)C(=O)N2 [Example 45, 2-(5-Methoxy-2-oxo-1,2-dihydro-indol-3-ylidenemethyl)-3-methyl-5-(2-morpholin-4-yl-ethyl)-1,5,6,7-tetrahydro-pyrrolo[3,2-c]pyridin-4-one] | 1.15 µM
11 | Cc1c(/C=C2\C(=O)Nc3ccc(NC=O)cc32)[nH]c2c1C(=O)N(CCN1CCOCC1)CC2 [Example 55, N-{3-[3-Methyl-5-(2-morpholin-4-yl-ethyl)-4-oxo-4,5,6,7-tetrahydro-1H-pyrrolo[3,2-c]pyridin-2-ylmethylene]-2-oxo-2,3-dihydro-1H-indol-5-yl}-formamide] | 3.72 µM
12 | CCN(CC)CCN1CCc2[nH]c(/C=C3\C(=O)Nc4ccc(NC(C)=O)cc43)c(C)c2C1=O [Example 11, N-{3-[5-(2-Diethylamino-ethyl)-3-methyl-4-oxo-4,5,6,7-tetrahydro-1H-pyrrolo[3,2-c]pyridine-2-ylmethylene]-2-oxo-2,3-dihydro-1H-indol-5-yl}-acetamide] | 0.17 µM

Reference: patent US8697692B2, “Pyrrolo [3,2-c] pyridine-4-one 2-indolinone protein kinase inhibitors” (Shanghai Hengrui Pharmaceutical Co., Ltd., priority 2006, dated 2014)
